Test results reported in US12091405B2, “Substituted pyrazole compounds as indoleamine 2,3-dioxygenase inhibitors” (Merck Sharp & Dohme LLC, priority 2018, dated 2024).

target: IDO1 (Homo sapiens, UniProt P14902); experiment: IDO1 Cellular Assay in HeLa Cells Stimulated with IFNγ; assay type: cell-based; conditions: IFNγ 100 ng/mL, 300 uM L-tryptophan, about 48 hours, fluorescence readout, read-out: IDO1 HELA Cell Assay, IC50
Procedure: Biological Assays IDO1 Cellular Assay in HeLa Cells Stimulated with IFNγ
HeLa cells were cultured in complete HeLa culture medium (90% EMEM, 10% heat-inactivated fetal bovine serum) and expanded to about 1×10^9 cells. The cells were then collected and frozen down at 1×10^7 cells/vial in 1 mL frozen medium (90% complete HeLa culture medium, 10% DMSO).
Compounds to be tested were serially diluted in ten 3-fold steps in DMSO starting from 10 mM DMSO stocks in Echo low volume plate(s). Compound dilutions or DMSO alone were then dispensed from the dilution plate(s) into Greiner black 384-well assay plate(s) (catalog #781086, 50 nL/well) using an Echo 550 acoustic liquid handler (Labcyte).
Frozen HeLa cells were thawed and transferred into HeLa assay medium (99% complete HeLa culture medium, 1% Pen/Strep) with 20 mL medium/vial of cells. The cells were spun down at 250 g in a table top centrifuge for 5 min and suspended in same volume of HeLa assay medium. The cells were then counted and adjusted to a density of 2×10^5 cells/mL in HeLa assay medium. Sterile L-tryptophan were added to the cells with final concentration of 300 uM L-tryptophan. A small aliquot (2 mL/plate) of HeLa cells were set aside and were not treated with IFNγ, to serve as the Max-E control.
HeLa cells with and without IFNγ were dispensed to the respective wells of 384-well assay plates containing the compounds. The plates were incubated for about 48 hours at a 37° C., 5% CO2 incubator. Afterwards, 12 μL of 0.5 M methyl isonipecotate in dimethyl sulfoxide were added into each well and the plates were sealed and incubated at 37° C. without CO2 overnight. The plates were centrifuged for 1 min at 200×g. The resulting fluorescence was measured in a Spectramax plate reader (Molecular Devices) with a 400 nm excitation filter and a 510 nm emission filter.
The fluorescence intensity of each well was corrected for the background observed in wells with non-IFNγ-treated cells and was expressed as a fraction of the intensity observed in wells of IFNγ-treated cells and DMSO only. Potencies were calculated by linear least squares fit to the four parameter logistic IC50 equation.
Compounds disclosed herein generally have IC50 of about 0.1 nM to about 20,000 nM, or more specifically, about 1 nM to about 10,000 nM, or more specifically, about 5 nM to about 5,000 nM, or more specifically, about 10 nM to about 1,000 nM, or still more specifically, about 10 nM to about 500 nM.

IDO1, sequence (P14902 whole entry): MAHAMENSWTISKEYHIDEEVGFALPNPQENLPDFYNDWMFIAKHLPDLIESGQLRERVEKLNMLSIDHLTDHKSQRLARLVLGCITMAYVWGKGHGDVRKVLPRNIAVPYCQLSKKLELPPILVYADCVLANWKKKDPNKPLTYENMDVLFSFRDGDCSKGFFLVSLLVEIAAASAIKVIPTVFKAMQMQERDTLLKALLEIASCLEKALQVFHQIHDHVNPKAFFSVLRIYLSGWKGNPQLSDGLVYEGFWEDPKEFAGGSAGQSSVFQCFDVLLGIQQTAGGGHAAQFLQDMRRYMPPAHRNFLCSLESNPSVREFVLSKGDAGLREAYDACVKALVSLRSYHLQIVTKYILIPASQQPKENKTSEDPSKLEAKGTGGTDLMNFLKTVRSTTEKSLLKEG

Row | IC50 | SMILES
1 | 1.9 nM | Cc1cccc(C2CCN(C(=O)Cn3nc(C(=O)N4CCC(OCCO)CC4)c4c3CCCC4)CC2)c1C [Example 38, 1-(4-(2,3-dimethylphenyl)piperidin-1-yl)-2-(3-(4-(2-hydroxyethoxy)piperidine-1-carbonyl)-4,5,6,7-tetrahydro-1H-indazol-1-yl)ethanone]
2 | 1.9 nM | Cc1cccc(C2CCN(C(=O)Cn3nc(C(=O)N4CC[C@@H](O)[C@H](C)C4)c4c3CCC4)CC2)c1C [Example 39, 1-(4-(2,3-dimethylphenyl)piperidin-1-yl)-2-(3-((3R,4R)-4-hydroxy-3-methylpiperidine-1-carbonyl)-5,6-dihydrocyclopenta[c]pyrazol-1(4H)-yl)ethan-1-one]
3 | 2.8 nM | Cc1cccc(C2CCN(C(=O)Cn3nc(C(=O)N4CCC(C)(O)CC4)c4c3CCC4)CC2)c1C [Example 40, 1-(4-(2,3-dimethylphenyl)piperidin-1-yl)-2-(3-(4-hydroxy-4-methylpiperidine-1-carbonyl)-5,6-dihydrocyclopenta[c]pyrazol-1(4H)-yl)ethan-1-one]
4 | 3.6 nM | Cc1cccc(C2CCN(C(=O)Cn3nc(C(=O)N4CCC(O)CC4)c4c3CCC4)CC2)c1C [Example 41, 1-(4-(2,3-dimethylphenyl)piperidin-1-yl)-2-(3-(4-hydroxypiperidine-1-carbonyl)-5,6-dihydrocyclopenta[c]pyrazol-1(4H)-yl)ethan-1-one]
5 | 8.1 nM | Cc1cccc(C2CCN(C(=O)Cn3nc(C(=O)N4CC[C@@H](O)[C@H](F)C4)c4c3CCC4)CC2)c1C [Example 45, 1-(4-(2,3-dimethylphenyl)piperidin-1-yl)-2-(3-((3R,4R)-3-fluoro-4-hydroxypiperidine-1-carbonyl)-5,6dihydrocyclopenta[c]pyrazol-1(4H)-yl)ethanone]
6 | 16 nM | Cc1cccc(C2CCN(C(=O)Cn3nc(C(=O)N4CCOCC4)c4c3CCC4)CC2)c1C [Example 46, 1-(4-(2,3-dimethylphenyl)piperidin-1-yl)-2-(3-(morpholine-4-carbonyl)-5,6-dihydrocyclopenta[c]pyrazol-1(4H)-yl)ethan-1-one]
7 | 17.6 nM | Cc1cccc(C2CCN(C(=O)Cn3nc(C(=O)N4CCN(C(=O)CO)CC4)c4c3CCC4)CC2)c1C [Example 47, 1-(4-(2,3-dimethylphenyl)piperidin-1-yl)-2-(3-(4-(2-hydroxyacetyl)piperazine-1-carbonyl)-5,6-dihydrocyclopenta[c]pyrazol-1(4H)-yl)ethanone]
8 | 27 nM | Cc1cccc(C2CCN(C(=O)Cn3nc(C(=O)N4CC[C@H](O)C4)c4c3CCC4)CC2)c1C [Example 48, (S)-1-(4-(2,3-dimethylphenyl)piperidin-1-yl)-2-(3-(3-hydroxypyrrolidine-1-carbonyl)-5,6-dihydrocyclopenta[c]pyrazol-1(4H)-yl)ethan-1-one]
9 | 29.8 nM | Cc1cccc(C2CCN(C(=O)Cn3nc(C(=O)N4CC[C@](C)(O)C4)c4c3CCC4)CC2)c1C [Example 49, (S)-1-(4-(2,3-dimethylphenyl)piperidin-1-yl)-2-(3-(3-hydroxy-3-methylpyrrolidine-1-carbonyl)-5,6-dihydrocyclopenta[c]pyrazol-1(4H)-yl)ethan-1-one]
10 | 40.1 nM | Cc1cccc(C2CCN(C(=O)Cn3nc(C(=O)N4CC(C)(O)C4)c4c3CCC4)CC2)c1C [Example 50, 1-(4-(2,3-dimethylphenyl)piperidin-1-yl)-2-(3-(3-hydroxy-3-methylazetidine-1-carbonyl)-5,6-dihydrocyclopenta[c]pyrazol-1(4H)-yl)ethan-1-one]
11 | 45.5 nM | Cc1cccc(C2CCN(C(=O)Cn3nc(C(=O)N4CC[C@@H](O)C4)c4c3CCC4)CC2)c1C [Example 51, (R)-1-(4-(2,3-dimethylphenyl)piperidin-1-yl)-2-(3-(3-hydroxypyrrolidine-1-carbonyl)-5,6-dihydrocyclopenta[c]pyrazol-1(4H)-yl)ethan-1-one]
12 | 111 nM | Cc1cc(F)ccc1C1CCN(C(=O)Cn2nc(C(=O)N3CC[C@H](O)[C@@H](F)C3)c3c2CCC3)CC1 [Example 52, 1-(4-(4-fluoro-2-methylphenyl)piperidin-1-yl)-2-(3-((3S,4S)-3-fluoro-4-hydroxypiperidine-1-carbonyl)-5,6-dihydrocyclopenta[c]pyrazol-1(4H)-yl)ethanone]
13 | 114 nM | Cc1cc(F)ccc1C1CCN(C(=O)Cn2nc(C(=O)N3CCC(O)(CF)CC3)c3c2CCC3)CC1 [Example 53, 1-(4-(4-fluoro-2-methylphenyl)piperidin-1-yl)-2-(3-(4-(fluoromethyl)-4-hydroxypiperidine-1-carbonyl)-5,6-dihydrocyclopenta[c]pyrazol-1 (4H)-yl)ethanone]
14 | 162 nM | Cc1cc(F)ccc1C1CCN(C(=O)Cn2nc(C(=O)N3CC[C@@H](O)[C@H](F)C3)c3c2CCC3)CC1 [Example 54, 1-(4-(4-fluoro-2-methylphenyl)piperidin-1-yl)-2-(3-((3R,4R)-3-fluoro-4-hydroxypiperidine-1-carbonyl)-5,6-dihydrocyclopenta[c]pyrazol-1(4H)-yl)ethanone]
15 | 166 nM | Cc1cc(F)ccc1C1CCN(C(=O)Cn2nc(C(=O)N3CC[C@@H](O)[C@@H](F)C3)c3c2CCC3)CC1 [Example 55, 1-(4-(4-fluoro-2-methylphenyl)piperidin-1-yl)-2-(3-((3S,4R)-3-fluoro-4-hydroxypiperidine-1-carbonyl)-5,6-dihydrocyclopenta[c]pyrazol-1(4H)-yl)ethanone]
16 | 199 nM | Cc1cc(F)ccc1C1CCN(C(=O)Cn2nc(C(=O)N3CC[C@H](O)[C@H](F)C3)c3c2CCC3)CC1 [Example 56, 1-(4-(4-fluoro-2-methylphenyl)piperidin-1-yl)-2-(3-((3R,4S)-3-fluoro-4-hydroxypiperidine-1-carbonyl)-5,6-dihydrocyclopenta[c]pyrazol-1(4H)-yl)ethanone]
17 | 289 nM | Cc1cc(F)ccc1C1CCN(C(=O)Cn2nc(C(=O)N3CCN(C(=O)CO)CC3)c3c2CCC3)CC1 [Example 57, 1-(4-(4-fluoro-2-methylphenyl)piperidin-1-yl)-2-(3-(4-(2-hydroxyacetyl)piperazine-1-carbonyl)-5,6-dihydrocyclopenta[c]pyrazol-1(4H)-yl)ethanone]
18 | 454 nM | Cc1cc(F)ccc1C1CCN(C(=O)Cn2nc(C(=O)N3CCO[C@H](CO)C3)c3c2CCC3)CC1 [Example 58, (S)-1-(4-(4-fluoro-2-methylphenyl)piperidin-1-yl)-2-(3-(2-(hydroxymethyl)morpholine-4-carbonyl)-5,6-dihydrocyclopenta[c]pyrazol-1(4H)-yl)ethanone]
19 | 1.8 nM | Cc1cccc(C2CCN(C(=O)Cn3nc(C(=O)N4CC[C@H](O)[C@H](F)C4)c4c3CCC4)CC2)c1C [Example 59, 1-(4-(2,3-dimethylphenyl)piperidin-1-yl)-2-(3-((3R,4S)-3-fluoro-4-hydroxypiperidine-1-carbonyl)-5,6-dihydrocyclopenta[c]pyrazol-1(4H)-yl)ethanone]
20 | 296 nM | C[C@@H]1CN(C(=O)c2nn(CC(=O)N3CCC(F)(c4ccccc4)CC3)c3c2CCC3)C[C@H](C)O1 [Example 63, 2-[3-[(2R,6S)-2,6-dimethylmorpholine-4-carbonyl]-5,6-dihydro-4H-cyclopenta[c]pyrazol-1-yl]-1-(4-fluoro-4-phenyl-1-piperidyl)ethanone]
21 | 43.5 nM | C[C@@H]1CN(C(=O)c2nn(CC(=O)N3CCC(C)(c4ccccc4)CC3)c3c2CCC3)C[C@H](C)O1 [Example 66, 2-{3-[(2R,6S)-2,6-dimethylmorpholine-4-carbonyl]-5,6-dihydrocyclopenta[c]pyrazol-1(4H)-yl}-1-(4-methyl-4-phenylpiperidin-1-yl)ethan-1-one]
22 | 52.4 nM | C[C@@H]1CN(C(=O)c2nn(CC(=O)N3CCC(c4cc(F)cc(F)c4)CC3)c3c2CCC3)C[C@H](C)O1 [Example 67, 1-[4-(3,5-difluorophenyl)piperidin-1-yl]-2-{3-[(2R,6S)-2,6-dimethylmorpholine-4-carbonyl]-5,6-dihydrocyclopenta[c]pyrazol-1(4H)-yl}ethan-1-one]
23 | 71.2 nM | C[C@@H]1CN(C(=O)c2nn(CC(=O)N3CCC(c4ccc(F)cc4)CC3)c3c2CCC3)C[C@H](C)O1 [Example 68, 2-{3-[(2R,6S)-2,6-dimethylmorpholine-4-carbonyl]-5,6-dihydrocyclopenta[c]pyrazol-1(4H)-yl}-1-[4-(4-fluorophenyl)piperidin-1-yl]ethan-1-one]
